Laboratory results reported in US10183015B2, “Heterocyclic compounds and methods of use” (Medivation Technologies LLC, priority 2015, dated 2019).
Values joined by “and” are separate entries in the source; they are usually repeats but may differ in a detail not shown here. Identical values can stand only once.

Key:
Format in all cases: in vivo
[1] = test system: 60% high fat Paigen diet induced NASH mouse model; experiment: Short-term Paigen-diet NASH mouse model: liver Oil Red O staining; conditions: 21 days
Method: (§1) To investigate whether Compound #37 prevents the development of pathology associated with NASH and steatosis in an acute exploratory disease model, a study was conducted using a diet-induced acute liver steatosis model in mice. As described below, in this study, C57BL/6J mice were initiated on the Paigen diet and simultaneously treated with Compound #37 (5, 20, and 40 mg/kg/day) or vehicle control (20% HPβCD 10 mL/kg/day) by oral gavage for 21 days.
(§2) After acclimation, 8-week old male C57Bl/6J mice (Charles River) weighing about 25 g were randomized in 4 groups according their body weight and treated once daily around noon by oral gavage with vehicle, or Compound #37 at various for 21 days as follows: Group 1: vehicle-20% (2-hydroxypropyl)-β-cyclodextrin (HP-β-CD) (n=10); Group 2: Compound #37, 5 mg/kg (n=10) Group 3: Compound #37, 20 mg/kg (n=10) Group 4: Compound #37, 40 mg/kg (n=10). During the treatment period, body weight and food intake (measured over 24h) were measured 3 times per week and once a week, respectively. During the acclimation, all mice were fed a standard diet (Special Diets Services RM1 (E), product no. 801492) and tap water ad libitum. After the acclimation period, mice were fed until the end of the experiment with a 60% high fat Paigen diet (60 kcal % fat, 1.25% cholesterol, and 0.5% cholate; D11061901, Research Diet) and tap water ad libitum.
One 0.5 cm^3 piece of liver was frozen in OCT in isopentane and stored at −80° C. for neutral lipid coloration with quantification to evaluate accumulation of neutral lipids in the liver. One section (thickness 5-7 μm) per block was deposited on superfrost+slides for Red Oil staining. Red Oil-stained slides were digitalized at ×20 with the Nanozoomer 2.0 HT. Red Oil labeling was quantified (surface, density): the stained slides were analyzed using an image. All the samples were analyzed within the same range of labeling intensity (0-130), allowing comparison between animals. The intensity scale ranged from 0 to 255 grey levels, in which 0 is the value of a black pixel, and 255 is the value of a white pixel. The staining intensity was calculated as the mean intensity of each pixel composing the labeling signal. For each slide, the percentage (%) of labeling was also calculated: %=(Surface of labeling*100)/section area.

[2] = test system: SCAP; experiment: Short-term Paigen-diet NASH mouse model: hepatic SCAP gene expression (RT-qPCR); conditions: liver, 21 days; for DDct: SCAP Dct relative to vehicle mean; for Dct: SCAP minus 18S; for 2DDct: SCAP relative expression to vehicle group, normalized to 18S; for SCAP: raw RT-qPCR value
Method: as §1, §2
(§3) Gene expression analysis. Hepatic expression levels of genes involved in lipid metabolism (FAS, SREBP1, ACC1, SCD1), cholesterol metabolism (HMG-CoAR, LDLR), SREBP proteolysis (SCAP, INSIG1), ER stress (PERK), oxidative stress (NRF2), inflammation (MCP-1), and fibrosis (collagen 1α1) were quantified by RTqPCR. Expression level was normalized to 18S gene expression and relative expression to vehicle group was calculated with the […] method.

[3] = DIN mouse model: body weight, food and water intake, mortality
Method: (§4) Male C57Bl/6J mice (8 weeks old) were housed in enriched ventilated cages (31×12.5×12.7 cm) throughout the experimental phase. Animals' cages litters were changed at least once a week. Animal were housed 5 per cage on inverted 12-hour light cycle (at 09:00 am lights off), 22±2° C. and 55±10% relative humidity. The acclimation period was 20 days. During the acclimation period, all mice were fed a standard diet (RM1 (E) 801492, SDS) and tap water ad libitum. After the acclimation period, mice were fed with the DIN diet (60% fat, cholesterol enriched) and fructose-enriched tap water ad libitum until the end of the experiment.
(§5) At 6 weeks of diet, mice were 4-hour fasted (09:00 am to 1:00 pm) and blood (150 μl/EDTA) was collected at 01:00 pm by retro-orbital bleeding under isoflurane anesthesia. Mice were then allocated in 2 homogenous groups (n=12/group) according to their plasma levels of ALT (average levels: 685U/L), AST (average levels: 627U/L) and HOMA-IR index (average value: 4.7), into 2 homogenous groups (see values at day 0 in Tables 15A and 15B ALT/AST and Tables 16A and 16B for HOMA-IR). Mice were then treated once daily by oral gavage with vehicle (Group 1) or Compound #37 at 20 mg/kg (Group 2) for 70 days.
Results. […] Water intake tended to be higher in mice treated with, resulting in a 17% increase in cumulative water intake (p<0.05 vs. vehicle). […]

[4] = test system: SCAP; experiment: DIN mouse model: hepatic SCAP gene expression; design: key to 2^DDct: expression relative to vehicle group, normalized to 18S; conditions: 20 mg/kg group; for 18S: Gene Expression: SCAP table, 18S reference; for 2^DDct / DDct / Dct / SCAP: Gene Expression: SCAP
Method: as §3, §4, §5
Hepatic expression levels of genes involved in lipid (FAS, SREBP1, ACC1, SCD1), cholesterol metabolism (HMG-CoAR, LDLR), in SREBP proteolysis (SCAP, INSIG1), in ER stress (PERK), oxidative stress (NRF2), and inflammation (MCP-1) were not changed. However, expression of collagen 1α1, involved in liver fibrosis, was reduced by 66% in mice treated with Compound #37 (p<0.05 vs. vehicle).

[5] = Compound #37 5 mg/kg, group mean, n=10
[6] = Compound #37 5 mg/kg, individual animals, 5 mg/kg
[7] = Compound #37 20 mg/kg, group mean, n=6
[8] = Compound #37 20 mg/kg, individual animals, 20 mg/kg

CC(C)Cc1cc(-c2nc(-c3ccc(NS(=O)(=O)C(F)(F)F)cc3Cl)cs2)ccn1 [Compound 37, N-(3-chloro-4-(2-(2-isobutylpyridin-4-yl)thiazol-4-yl)phenyl)-1,1,1-trifluoromethanesulfonamide]
Liver O red Oil staining, % labeling ([1]; 5 mg/kg p.o. daily, group mean): 1.50% | Liver O red Oil staining, % labeling ([1]; 5 mg/kg p.o. daily, individual animals): 2.08% and 2.02% and 1.19% and 2.18% and 1.64% and 1.09% and 1.16% and 1.50% and 0.70% and 1.39% | Liver O red Oil staining, % labeling ([1]; 20 mg/kg p.o. daily, group mean): 0.93% | Liver O red Oil staining, % labeling ([1]; 20 mg/kg p.o. daily, individual animals): 1.53% and 0.81% and 0.29% and 1.11% and 0.92% (2×) | DDct [2, 5]: 0.19 | DDct [2, 6]: −0.7 and 0.72 and −0.1 and −0.18 and 1.21 and 0.7 and 0.27 and −0.21 and −0.02 and 0.17 | DDct [2, 7]: 0.07 | DDct [2, 8]: 0.6 and 0.83 and 0.33 and −1.29 and 0.9 and −0.94 | Dct [2, 5]: 12.8 | Dct [2, 6]: 11.96 and 13.38 and 12.56 and 12.48 and 13.87 and 13.36 and 12.93 and 12.45 and 12.64 and 12.83 | Dct [2, 7]: 12.7 | Dct [2, 8]: 13.26 and 13.49 and 12.99 and 11.37 and 13.56 and 11.72 | 2DDct [2, 5]: 0.94 | 2DDct [2, 6]: 1.62 and 0.61 and 1.07 and 1.13 and 0.43 and 0.62 and 0.83 and 1.16 and 1.01 and 0.89 | 2DDct [2, 7]: 1.15 | 2DDct [2, 8]: 0.66 and 0.56 and 0.79 and 2.44 and 0.54 and 1.92 | SCAP [2, 5]: 25.1 | SCAP [2, 6]: 25.42 and 26.49 and 24.17 and 25.83 and 25.9 and 26.71 and 24.53 and 24.24 and 23.78 and 23.95 | SCAP [2, 7]: 24.9 | SCAP [2, 8]: 26.17 and 25.78 and 25.19 and 24.4 and 25.05 and 22.98 | body weight and body weight gain ([3]; 20 mg/kg p.o. daily, 70 days): non-significant trend towards lower | tolerability ([3]; 20 mg/kg/day, 10 weeks): generally well tolerated | 18S ([4]; individual animal, 20 mg/kg): 12.55 (2×) and 12.84 and 12.43 and 12.35 (2×) and 12.59 and 11.73 and 12.51 and 11.5 and 11.55 | 18S ([4]; mean, n 11): 12.3 | 2^DDct ([4]; individual animal, 20 mg/kg): 1.37 and 1.72 (2×) and 0.65 and 0.71 and 0.91 and 1.46 and 1.39 and 0.64 and 0.59 and 1.60 | DDct ([4]; individual animal, 20 mg/kg): −0.45 and −0.78 (2×) and 0.63 and 0.49 and 0.13 and −0.54 and −0.47 and 0.65 and 0.77 and −0.68 | Dct ([4]; individual animal, 20 mg/kg): 11.61 and 11.28 (2×) and 12.69 and 12.55 and 12.19 and 11.52 and 11.59 and 12.71 and 12.83 and 11.38 | SCAP ([4]; individual animal, 20 mg/kg): 24.16 and 23.83 and 25.53 and 24.98 and 24.54 and 24.11 and 23.32 and 23.79 and 24.21 and 24.38 and 23.73 | 2^DDct ([4]; mean, n 11): 1.16 | DDct ([4]; mean, n 11): −0.10 | Dct ([4]; mean, n 11): 12.0 | SCAP ([4]; mean, n 11): 24.2
